In ChEMBL document CHEMBL4715900, “Novel Substituted Monocyclic Heteroaryl Compounds for Treating Huntington's Disease” (ACS Med Chem Lett, 2021):

Molecular target: Huntingtin (Homo sapiens, UniProt P42858)
Test: Inhibition of Huntingtin protein (unknown origin) incubated for overnight in presence of MW1/MAB2166 monoclonal antibody by ELISA-based MSD electrochemiluminescence assay

Chain of Huntingtin (P42858 whole entry): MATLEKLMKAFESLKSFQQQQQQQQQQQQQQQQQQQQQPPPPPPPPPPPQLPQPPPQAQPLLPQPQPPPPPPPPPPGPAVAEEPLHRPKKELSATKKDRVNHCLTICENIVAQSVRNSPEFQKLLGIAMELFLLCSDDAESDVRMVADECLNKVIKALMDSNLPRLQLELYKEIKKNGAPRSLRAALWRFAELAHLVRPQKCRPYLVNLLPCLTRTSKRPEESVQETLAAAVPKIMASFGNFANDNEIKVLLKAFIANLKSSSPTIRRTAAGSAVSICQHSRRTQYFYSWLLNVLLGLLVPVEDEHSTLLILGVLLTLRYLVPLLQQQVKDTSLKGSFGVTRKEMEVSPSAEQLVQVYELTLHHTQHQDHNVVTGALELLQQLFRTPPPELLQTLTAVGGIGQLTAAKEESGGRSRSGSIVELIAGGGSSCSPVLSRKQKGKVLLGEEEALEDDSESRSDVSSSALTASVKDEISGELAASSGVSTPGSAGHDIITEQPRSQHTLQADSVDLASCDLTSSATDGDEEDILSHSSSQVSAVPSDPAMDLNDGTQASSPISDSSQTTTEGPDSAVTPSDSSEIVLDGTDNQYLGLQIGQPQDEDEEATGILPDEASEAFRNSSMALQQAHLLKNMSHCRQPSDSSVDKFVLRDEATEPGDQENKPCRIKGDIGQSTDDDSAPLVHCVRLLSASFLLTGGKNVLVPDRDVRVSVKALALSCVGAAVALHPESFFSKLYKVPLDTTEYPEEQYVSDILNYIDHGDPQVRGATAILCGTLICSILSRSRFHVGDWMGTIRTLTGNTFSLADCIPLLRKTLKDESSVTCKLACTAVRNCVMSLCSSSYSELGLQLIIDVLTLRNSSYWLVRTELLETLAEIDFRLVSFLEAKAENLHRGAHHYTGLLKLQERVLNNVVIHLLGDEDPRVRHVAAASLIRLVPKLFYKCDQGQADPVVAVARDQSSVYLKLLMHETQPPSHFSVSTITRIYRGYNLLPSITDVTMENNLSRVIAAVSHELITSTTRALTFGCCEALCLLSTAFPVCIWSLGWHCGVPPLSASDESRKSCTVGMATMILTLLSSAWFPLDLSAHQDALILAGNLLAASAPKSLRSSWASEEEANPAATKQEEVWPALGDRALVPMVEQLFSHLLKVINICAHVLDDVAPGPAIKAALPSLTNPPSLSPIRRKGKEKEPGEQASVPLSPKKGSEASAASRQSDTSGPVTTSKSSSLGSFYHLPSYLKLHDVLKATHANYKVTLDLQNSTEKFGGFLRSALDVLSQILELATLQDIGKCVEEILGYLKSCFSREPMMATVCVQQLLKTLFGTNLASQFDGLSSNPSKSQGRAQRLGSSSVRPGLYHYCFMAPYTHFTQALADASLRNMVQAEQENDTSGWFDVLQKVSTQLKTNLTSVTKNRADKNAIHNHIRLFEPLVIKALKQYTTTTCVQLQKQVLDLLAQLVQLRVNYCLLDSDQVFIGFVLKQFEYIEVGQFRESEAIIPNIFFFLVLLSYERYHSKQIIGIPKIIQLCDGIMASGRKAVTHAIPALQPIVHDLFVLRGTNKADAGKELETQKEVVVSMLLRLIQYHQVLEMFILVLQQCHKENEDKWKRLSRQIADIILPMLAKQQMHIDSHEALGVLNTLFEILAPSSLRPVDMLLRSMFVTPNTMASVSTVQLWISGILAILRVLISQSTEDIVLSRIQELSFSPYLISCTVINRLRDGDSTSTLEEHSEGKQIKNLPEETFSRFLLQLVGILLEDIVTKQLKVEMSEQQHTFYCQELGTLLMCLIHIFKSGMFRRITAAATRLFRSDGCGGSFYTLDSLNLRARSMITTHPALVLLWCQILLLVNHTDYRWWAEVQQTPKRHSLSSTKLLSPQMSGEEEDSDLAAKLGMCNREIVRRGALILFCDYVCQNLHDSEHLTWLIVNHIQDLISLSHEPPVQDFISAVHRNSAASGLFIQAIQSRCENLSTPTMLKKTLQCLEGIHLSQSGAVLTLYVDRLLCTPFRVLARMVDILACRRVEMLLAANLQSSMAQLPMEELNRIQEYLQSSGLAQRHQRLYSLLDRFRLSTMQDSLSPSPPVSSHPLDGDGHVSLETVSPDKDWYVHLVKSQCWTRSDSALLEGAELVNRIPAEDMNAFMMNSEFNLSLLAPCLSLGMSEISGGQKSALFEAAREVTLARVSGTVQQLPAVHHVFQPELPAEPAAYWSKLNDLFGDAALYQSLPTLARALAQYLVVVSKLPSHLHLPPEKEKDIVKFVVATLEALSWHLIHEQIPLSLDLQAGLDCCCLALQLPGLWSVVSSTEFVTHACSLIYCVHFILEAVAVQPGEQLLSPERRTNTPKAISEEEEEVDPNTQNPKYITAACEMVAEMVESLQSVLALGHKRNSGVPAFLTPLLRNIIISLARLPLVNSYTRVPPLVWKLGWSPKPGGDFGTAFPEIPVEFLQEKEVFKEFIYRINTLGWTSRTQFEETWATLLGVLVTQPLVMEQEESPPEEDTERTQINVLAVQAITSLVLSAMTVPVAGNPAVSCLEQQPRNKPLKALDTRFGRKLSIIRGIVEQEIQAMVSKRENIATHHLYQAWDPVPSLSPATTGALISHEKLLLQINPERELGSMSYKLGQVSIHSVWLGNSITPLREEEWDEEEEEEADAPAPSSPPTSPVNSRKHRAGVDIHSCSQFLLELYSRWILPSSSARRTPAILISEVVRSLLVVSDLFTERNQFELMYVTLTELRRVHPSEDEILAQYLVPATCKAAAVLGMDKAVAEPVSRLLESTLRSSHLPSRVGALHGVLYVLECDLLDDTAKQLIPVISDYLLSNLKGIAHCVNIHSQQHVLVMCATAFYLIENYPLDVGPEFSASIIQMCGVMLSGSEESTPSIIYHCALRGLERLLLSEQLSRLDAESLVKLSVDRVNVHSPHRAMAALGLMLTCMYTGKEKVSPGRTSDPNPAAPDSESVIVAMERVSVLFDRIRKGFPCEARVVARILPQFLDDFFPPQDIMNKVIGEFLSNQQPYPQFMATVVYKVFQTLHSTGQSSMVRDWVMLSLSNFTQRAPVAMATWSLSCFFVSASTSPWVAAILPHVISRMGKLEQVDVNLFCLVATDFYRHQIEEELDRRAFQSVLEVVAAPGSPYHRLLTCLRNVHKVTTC

Row | Structure (SMILES) | IC50 [nM]
1 | Cn1cc(-c2ccc(-c3cnc(NC4CC(C)(C)NC(C)(C)C4)nn3)c(O)c2)cn1 | ≤ 100
2 | CC(C)(C)NC1CCN(c2ncc(-c3ccc(-c4c[nH]nc4C#N)cc3O)nn2)C1 (stereo unspecified) | ≤ 100
3 | CN(c1cnc(-c2ccc(-c3cn[nH]c3F)cc2O)nn1)C1CC(C)(C)NC(C)(C)C1 | ≤ 100
4 | CN(c1ncc(-c2ccc(-c3ncco3)cc2O)nn1)C1CC(C)(C)NC(C)(C)C1 | ≤ 100
5 | CN(c1cnc(-c2ccc(-n3nccn3)cc2O)nn1)C1CC(C)(C)NC(C)(C)C1 | ≤ 100
6 | CC1(C)CC(Nc2cnc(-c3ccc(-c4cn[nH]c4)cc3O)nn2)C(F)C(C)(C)N1 (stereo unspecified) | ≤ 100
